According to paper PMC7086363, “All-stage precisional glioma targeted therapy enabled by a well-designed D-peptide” (Theranostics, 2020):
Where a SMILES comes first, the peptide text is derived from it. Where no end group is shown, it is not given here. [ ]: non-standard residue; d: D form. Ahx = NCCCCCC(=O)O

Tests used:
[1] = tested on: intracranial U87 glioma; assay: Kaplan-Meier survival of intracranial glioma bearing nude mice; type: in vivo; settings: n = 8
Experimental: The intracranial glioma bearing mice were used to evaluate the anti-glioma efficacy of various therapeutic regimen.
Concurrent combination chemotherapy has been emerging as a promising approach to improve the efficacy of cancer therapy [29]-[31]. Thus, ^DWVAP Micelle/PTL was used in combination with TMZ and ^DWVAP Micelle/PTX respectively in the present study. For TMZ dosage regimen, mice were randomly divided into four groups (n = 8) and treated with 100 μL of saline, ^DWVAP Micelle/PTL (5 mg/kg), TMZ (10 mg/kg) and ^DWVAP Micelle/PTL plus TMZ (5 mg/kg and 10 mg/kg, respectively) via oral gavage or tail vein. […] Compared with TMZ, the combinational therapy prolonged the median survival time by 2.10 times (Figure 6A). […] The slices were also stained with anti-CD133 antibody to quantify glioma stem cells. […]
Figure 6 Kaplan-Meier survival curves of intracranial glioblastoma-implanted nude mice treated with different regimens. […] Quantification of angiogenesis inhibition in tumors with different formulations in comparison to saline group (D). […] Quantification of TUNEL positive cells in tumors with different formulations in comparison to saline group (F). […] Quantification of tumor stem cell inhibition in tumors with different formulations in comparison to saline group (H). […]

[2] = tested on: NF-κB p65 nuclear translocation in U87 cells; assay: NF-κB activation and nuclear translocation assay (immunofluorescence); type: cell-based; settings: 24 h treatment, Figure 7D-F
Excerpt: NF-κB plays a pivotal role in tumorigenesis through multiple signaling pathways. Aberrant activation of NF-κB has been observed in various types of cancer. Constitutive activation of NF-κB often causes bad response or resistance to chemotherapeutics, tumor recurrence, and poor outcome of treatment. Conversely, inhibition of NF-κB could sensitize the glioma cells to chemotherapy. The combination of PTL with PTX and TMZ in the present study enhanced anti-glioma efficacy in experimental animals. Since PTL is a potent inhibitor of NF-κB, the inhibitory activities of different PTL formulations on NF-κB pathway were examined. Immunofluorescence was used to detect NF-κB activation and nuclear translocation. After treatment with different formulations for 24 h, cells were processed for confocal fluorescence microscopic imaging. […] In addition, we also analyzed the p65 protein level in the nucleus of U87 cells by western blotting (Figure S7) and the results were consistent with immunofluorescence.
NF-κB activation and nuclear translocation assay was performed according to the reagent manufacturer's instructions (Beyotime Biotech, China). Briefly, cells were seeded in four-well disk and then treated with different drug loaded micelles or free drug alone or in combinations for 24 h. […] The protein concentrations were quantified using BCA Protein Assay Kit (Thermo Fisher Scientific). […]

[3] = tested on: HUVECs; assay: Cellular internalization of fluorescein labelled peptides in HUVECs (flow cytometry); type: cell-based, human; settings: 4 hours, Figure S1
Experimental: (§1) The targeting ability of ^DWVAP was evaluated in primary rat brain capillary endothelial cells (BCECs), HUVECs and U87 cells. […] OPC cells were previously proven as a cell line of glioma cell-of-origin with under-appreciated proliferative and plastic potentials. OPC cells were used here to evaluate the GSCs targeting effect of the developed peptides. […] In vivo, near-infrared dye Cy7 was conjugated with peptides and the conjugates were intravenously injected via the tail vein to test the targeting effect of ^DWVAP.
(§2) Brain capillary endothelial cells (BCEC), U87 cells and HUVEC cells were used to investigate the peptides targeting ability since they were main component of BBB, tumor and tumor vessels respectively. OPC cells were used to evaluate the glioma stem cell targeting ability in vitro [38]. Cellular uptake behavior was observed by the confocal microscope and the fluorescent intensity was captured by flow cytometry 4 hours after pre-incubation with different fluorescein labelled peptides.

[4] = tested on: U87 cells; assay: Cellular internalization of fluorescein labelled peptides in U87 cells (flow cytometry); type: cell-based; settings: 4 hours, Figure S1
Experimental: as §1, §2

[5] = tested on: OPC cells; assay: Cellular internalization of fluorescein labelled peptides in OPC cells (GSC targeting); type: cell-based; settings: confocal microscopy, Figure 2E
Experimental: as §1, §2

[6] = target: T1, Recombinant human GRP78 protein (human, UniProt P11021 19-654); assay: SPR; Biacore T200; recombinant human GRP78 amine-coupled to a CM5 sensor chip; peptides in 2-fold serial dilution injected at 30 µL/min; buffer HBS-N or HBS-EP (methods); settings: both partners purified
T1 construct: GRP78, human, recombinant; No catalogue number, tag or limits printed; source: bought: Abcam
T1 sequence (P11021 19-654): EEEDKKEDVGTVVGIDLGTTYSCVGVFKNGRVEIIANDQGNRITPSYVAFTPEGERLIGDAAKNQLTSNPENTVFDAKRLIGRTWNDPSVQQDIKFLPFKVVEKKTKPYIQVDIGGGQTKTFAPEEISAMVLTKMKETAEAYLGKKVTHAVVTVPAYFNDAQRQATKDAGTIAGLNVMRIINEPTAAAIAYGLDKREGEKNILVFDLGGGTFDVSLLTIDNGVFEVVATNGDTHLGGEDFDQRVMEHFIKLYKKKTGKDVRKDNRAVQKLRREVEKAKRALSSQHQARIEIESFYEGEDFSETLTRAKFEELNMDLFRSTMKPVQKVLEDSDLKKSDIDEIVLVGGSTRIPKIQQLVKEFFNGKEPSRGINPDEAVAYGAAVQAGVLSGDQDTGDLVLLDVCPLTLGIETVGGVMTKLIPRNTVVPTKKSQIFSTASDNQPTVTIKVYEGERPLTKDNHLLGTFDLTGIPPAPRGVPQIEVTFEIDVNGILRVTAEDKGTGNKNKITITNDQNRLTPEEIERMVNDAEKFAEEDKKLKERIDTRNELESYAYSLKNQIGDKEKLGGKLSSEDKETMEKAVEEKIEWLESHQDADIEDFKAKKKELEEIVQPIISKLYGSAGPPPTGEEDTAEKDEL

Molecule: C=C1C(=O)O[C@H]2[C@H]1CC/C(C)=C/CC[C@@]1(C)O[C@@H]21 [PTL, Parthenolide]
- median survival ([1]; Figure S5B, 5 mg/kg PTL at 6, 8, 10, 12 and 14 days post-tumor implantation, saline 29.5 days): 32 days
- p65 nuclear translocation [2]: inhibition of p65

Molecule: CC(=O)O[C@H]1C(=O)[C@@]2(C)[C@H]([C@H](OC(=O)c3ccccc3)[C@]3(O)C[C@H](OC(=O)[C@H](O)[C@@H](NC(=O)c4ccccc4)c4ccccc4)C(C)=C1C3(C)C)[C@]1(OC(C)=O)CO[C@@H]1C[C@@H]2O [Taxol, Paclitaxel]
- median survival time ([1]; Figure S5A, four injections, 6 mg/kg PTX each, at 6, 9, 12 and 15 days after implantation): 20 days

Molecule: CC(C)[C@@H](NC(=O)[C@@H](CCCNC(=N)N)NC(=O)[C@H](NC(=O)[C@@H](CC(N)=O)NC(=O)[C@H](N)CO)[C@H](C)O)C(=O)N[C@H](C)C(=O)N1CCC[C@@H]1C(=O)N[C@H](CS)C(=O)O [^DVAP] (HELM PEPTIDE1{[dS].[dN].[dT].[dR].[dV].[dA].[dP].[dC]}$$$$V2.0; N-terminus and C-terminus assumed)
- fluorescence-positive HUVECs [3]: > 80%
- fluorescence-positive U87 cells [4]: More than 90%
- uptake by OPC cells [5]: effectively taken up

B1: ^DVAP peptide (peptide)
peptide: [dS][dN][dT][dR][dV][dA][dP][dC]
notes: all-D peptide ligand of GRP78; also called ^DS^DN^DT^DR^DV^DA^DP; ^DS^DN^DT^DR^DV^DA^DP^DC; source: synthetic peptide, bought: Karebay Biochem
- Kd [6]: 102 nM

B2: "Y-shaped" ^DWVAP peptide (peptide)
peptide: [dS][dN][dT][dR][dV][dA][dP][dC][Ahx][dW][dS][dW]G[dP][dY][dS]
modifications: not fully specified
notes: ^DVAP stretch (all-D) with D-Cys, ligand of GRP78; ^DWSW stretch (all-D), quorum-sensing peptide; joined to the first stretch through aminocaproic acid (Ahx), which has no one-letter code; also called ^DWVAP-Cys; ^DS^DN^DT^DR^DV^DA^DP^DC-Ahx-^DW^DS^DW^DG^DP^DY^DS; source: synthetic peptide (solid phase peptide synthesis)
- Kd [6]: 686 nM
